“Also recorded” adds a separate entry of the source. Counter-ions that a name gives are not always drawn.
Legend:
[1] = Equilibrium solubility in water; type: physicochemical; conditions: for Crystal form transformation: XRPD of solid after 24 hours equilibrium in water; for pH: supernatant after 24 hours equilibrium in water
Protocol: As a comparison, the equilibrium solubility was also tested under the same conditions for crystal form C sample (prepared in Example 11), crystal form D sample (prepared in Example 12), and crystal form F sample (prepared in Example 13). The suspension of each crystal form (˜10 mg/mL) was prepared in the test, magnetically stirred at room temperature for 24 hours (rotating speed˜800 rpm) and then centrifuged (10000 rpm, 5 min). The solubility and pH were determined for the supernatant after filtration ([…] PTFE filter membrane) and XRPD (transmission) for the solid.

[2] = system: 5-hydroxytryptamine (5-HT) receptor in rabbit vascular smooth muscle; experiment: Antagonism of 5-HT cumulative contraction of rabbit aorta; type: cell-based
Protocol: (§1) After anesthetizing the rabbit, its chest was quickly cut open. The descending aorta, connective tissues, and surrounding adipose tissues were removed (if the serotonin receptor antagonistic test was carried out, a smooth stainless steel rod was used to remove the endothelial cells), and the aorta was cut into 3-5 mm vascular rings. Then, the steel wire hook was passed through the vascular ring, with one end fixed on the ventilation hook and the other end connected to the tension transducer and placed in a bath tube containing 20 ml of nutrient solution. The change in tension was recorded. The temperature was maintained in the bath tube at 37±0.5° C., and a mixed gas (95% O2+5% CO2) was introduced at the rate of 1-2 bubbles per second. The initial load of the specimen was 1.5 g. The nutrient solution was changed every 20 min, balanced for 2 h, and the test was started after the baseline became stable.
After the specimen tension became stable, the waveform was recorded and 5-HT added cumulatively in the bath tube (10^−7˜3×10^−4 mol/L) until reaching the maximum response, and the waveform was recorded again. […]
After the specimen tension became stable, a waveform was recorded and 5-HT cumulatively added in the bath tube (10^−7˜3×10^−4 mol/L) until reaching the maximum response, and the waveform was recorded again. […]

[3] = system: α receptor in rabbit vascular smooth muscle; experiment: Antagonism of norepinephrine cumulative contraction of rabbit aorta; type: cell-based
Protocol: as §1
After the specimen tension became stable, a waveform was recorded and norepinephrine added cumulatively in the bath tube (10^−8˜6×10^−5 mol/L) until reaching the maximum response, and then, the waveform was recorded again. […]
After the specimen tension became stable, a waveform was recorded and norepinephrine added cumulatively in the bath tube (10^−8˜3×10^−3 mol/L) until reaching the maximum response, and then, the waveform was recorded. […]

[4] = Hygroscopicity by dynamic vapor sorption (DVS); type: physicochemical
Protocol: Dynamic vapor sorption (DVS) curves were created using DVS Intrinsic of SMS (Surface Measurement Systems). The relative humidity at 25° C. was corrected by the deliquescence points of LiCl, Mg (NO3)2, and KCl.

[5] = Solid-state stability (HPLC purity, XRPD crystal form); type: physicochemical
Protocol: For the solid samples separated under different conditions, the chemical stability was evaluated by determining purity using the HPLC method, and the physical stability was evaluated by determining the crystal form using the XRPD test.

[6] = system: isolated rabbit vascular smooth muscle contraction induced by spasmodic agent AD; experiment: Relaxation of isolated rabbit vascular smooth muscle contraction induced by spasmodic agent AD; type: cell-based; conditions: Oryctolagus cuniculus; adrenaline hydrochloride 10^−5 mol/L; X7 1×10^−9˜1×10^−6 mol/L; read-out: −logEC50 to relax the rabbit aorta contraction by AD (converted)
Protocol: as §1, with “The initial load of the specimen was 1.5 g. The nutrient solution was changed every 20 min, balanced for 2 h, and the test was started after the baseline became stable.” left out
After the specimen tension became stable, a waveform was recorded, the spasmodic agent adrenaline hydrochloride (AD) (10^−5 mol/L) was added in the bath tube to induce contraction. […] When the maximum response of the next contraction was basically the same as that of the previous one, the prepared X7 solution (1×10^−9˜1×10^−6 mol/L) was added, and the waveform recorded. With the maximum relaxation response of X7 as 100%, the relaxation percentage of X7 at each concentration was calculated and the dose-effect curve plotted using the relaxation percentage of X7 as the vertical coordinate and the logarithm of each concentration as the horizontal coordinate. […]

[7] = equilibrium solubility in water, room temperature, 24 hours, hydrochloride
[8] = room temperature, hydrochloride
[9] = 3 conditions: sealed 80° C. 1 day, open 25° C./60% RH and 40° C./75% RH 1 week, hydrochloride

c1ccc2c(c1)nnn2CCCCN1CCN(c2nsc3ccccc23)CC1 [Crystal form D, 3-(4-(4-(1H-benzotriazol-1-yl)butyl)piperazin-1-yl) benzoisothiazole hydrochloride]
Crystal form transformation ([1]; listed as 0, hydrochloride): transformed into crystal form B
Solubility [1, 7]: 3100 µg/mL
pH [1, 8]: 4.9

COc1cccc(CCc2ccccc2OCC(CN(C)C)OC(=O)CCC(=O)O)c1 (stereo not shown) [sarpogrelate, reference compound]
PA2 to resist rabbit aorta contraction by 5-HT ([2]; sarpogrelate 10^−6 mol/L): 7.21±0.08

COc1cc2nc(N3CCN(C(=O)C4COc5ccccc5O4)CC3)nc(N)c2cc1OC (stereo not shown) [doxazosin, reference compound]
PA2 to resist rabbit aorta contraction by NA ([3]; doxazosin 10^−7 mol/L): 7.83±0.05

c1ccc2c(c1)nnn2CCCCN1CCN(c2nsc3ccccc23)CC1 [Crystal form C, 3-(4-(4-(1H-benzotriazol-1-yl)butyl)piperazin-1-yl) benzoisothiazole hydrochloride]
Crystal form transformation ([1]; hydrochloride): transformed into crystal form B
Solubility [1, 7]: 3300 µg/mL
pH [1, 8]: 4.9

c1ccc2c(c1)nnn2CCCCN1CCN(c2nsc3ccccc23)CC1 [Crystal form A, 3-(4-(4-(1H-benzotriazol-1-yl)butyl)piperazin-1-yl) benzoisothiazole hydrochloride]
Crystal form transformation ([1]; hydrochloride): No
Crystal form transformation ([1]; listed as crystal form A, hydrochloride): remained unchanged
pH [1, 8]: 4.6
solubility at 24 h ([1]; water, thermodynamic from solid, equilibrium solubility in water, room temperature, 24 hours): 3800 µg/mL
crystal form transformation after the DVS test ([4]; 25° C.): no crystal form transformation
water absorbed (DVS) ([4]; 25° C./80% RH): 0.08%
hygroscopicity ([4]; DVS, 25° C./80% RH, China Pharmacopoeia 2015 guide): no hygroscopicity
chemical purity change (chemical stability, HPLC) [5, 9]: does not undergo crystal form transformation and chemical purity reduction; also recorded: no crystal form transformation or reduction of HPLC purity
crystal form transformation (physical stability, XRPD) [5, 9]: does not undergo crystal form transformation; also recorded: no crystal form transformation

c1ccc2c(c1)nnn2CCCCN1CCN(c2nsc3ccccc23)CC1 [X7, 3-(4-(4-(1H-benzotriazol-1-yl)butyl)piperazin-1-yl) benzoisothiazole hydrochloride]
EC50 [6]: 8.51 nM
PA2 to resist rabbit aorta contraction by 5HT ([2]; X7 10^−7 mol/L, endothelium removed): 8.86±0.14
PA2 to resist rabbit aorta contraction by norepinephrine ([3]; X7 3×10^−8 mol/L): 7.98±0.04

c1ccc2c(c1)nnn2CCCCN1CCN(c2nsc3ccccc23)CC1 [Crystal form F, 3-(4-(4-(1H-benzotriazol-1-yl)butyl)piperazin-1-yl) benzoisothiazole hydrochloride]
Crystal form transformation ([1]; hydrochloride): transformed into crystal form B
Solubility [1, 7]: 2900 µg/mL
pH [1, 8]: 4.7

c1ccc2c(c1)nnn2CCCCN1CCN(c2nsc3ccccc23)CC1 [Crystal form B, 3-(4-(4-(1H-benzotriazol-1-yl)butyl)piperazin-1-yl) benzoisothiazole hydrochloride]
Crystal form transformation ([1]; hydrochloride): No
Crystal form transformation ([1]; listed as crystal form B, hydrochloride): remained unchanged
Solubility [1, 7]: 3400 µg/mL
pH [1, 8]: 4.9
water absorption (DVS) ([4]; adsorption process, 95% RH, 25° C.): 12.5%
water absorbed (DVS) ([4]; desorption process, 30% RH, 25° C.): 0.4%
water absorbed (DVS) ([4]; desorption process, 50% RH, 25° C.): 12.3%
chemical purity change (chemical stability, HPLC) [5, 9]: does not decrease
HPLC purity change ([5]; open container, 25° C./60% RH, 1 week): no change in crystal form or HPLC purity
crystal form change (physical stability, XRPD) ([5]; open container, 25° C./60% RH, 1 week, hydrochloride): no change in crystal form
crystal form change (physical stability, XRPD) ([5]; open container, 25° C./60% RH, 1 week, listed as crystal form B, hydrochloride): remains unchanged
